Measured values reported in patent publication US12209080B2, “Polymorphic forms of kinase inhibitor compound, pharmaceutical composition containing same, preparation method therefor and use thereof” (EQUINOX SCIENCES, LLC, priority 2016, dated 2025).
≈ marks a conversion by molar mass, not a printed value.

Tests used:
[1] = Solubility determination in water by HPLC; format: physicochemical; conditions: suspension in water, 25° C.
Experimental: HPLC detection was performed using the crystalline form 1 as a standard, with its concentration of 204.2 μg*mL^−1 and its content set as 100%, and the detection was performed 7 times. The average peak area was 159.691 mAU*min (retention time was 7.4 min).

[2] = Moisture-induced crystallization experiment (XRD); format: physicochemical; conditions: room temperature, 58-97% RH, up to 10 days
Experimental: About 10 mg of the crystalline form 1 was taken and placed in the corresponding environment, and the solid was detection by XRD at different time.

[3] = Stability of the crystalline forms (HPLC, XRD, DSC); format: physicochemical; conditions: for HPLC Maximum single impurity %: retention time (min) in brackets
Experimental: Experimental conditions: the samples were sealed and placed at 80° C. for 24 hours, and then placed in an open dish at 25° C./60% RH (relative humidity) and 40° C./75% RH for 7 days. Detection method: HPLC (only for the starting samples and samples placed at 80° C. for 24 hours), XRD, DSC.
In addition, the long-term stabilities of the crystalline form 1 for 12 months, 24 months, 36 months, and 48 months at 25° C./60% RH were also investigated.

[4] = Stability of crystalline form 1 in aqueous methanol (XRPD detection); format: physicochemical
Text: The stability of the crystalline form 1 in aqueous methanol solution at different temperature and for different time is as follows.

[5] = Dissolution rate of crystalline forms 1 and 2; format: physicochemical
Text: (§1) The moisture content, solubility and dissolution rate of the crystalline forms 1 and 2 were detected using the methods described above. The results are shown in Table 21, which indicate that the solubility, dissolution, and moisture content (total pharmaceutical properties) of the crystalline form 1 are higher than that of the crystalline form 2. Moreover, the crystalline forms 1 and 2 have the highest solubility in methanol.

[6] = Pharmacokinetic experiment, oral administration; format: in vivo, Sprague Dawley rats; conditions: rat, oral 10 mg/kg; for AUC(0-t) / Cmax: suspension in 0.5% CMC, 10 mg/kg
Experimental: Twelve Sprague Dawley rats with weight of 230-250 g were randomly divided into 2 groups, wherein each group consisted of 3 males and 3 females. Crystalline forms 1 and 2 were separately prepared as suspensions in 0.5% carboxymethylcellulose (CMC). The rats were fasted for 12 hours with free access to water and then orally administered at a dose of 10 mg/kg. Blood samples (0.2-0.3 ml) before and after 15, 30, 60, 120, 240, 360, 480, 720, 1440 minutes of the oral administration were collected in heparin anticoagulation tubes, which were then centrifuged to obtain plasma. The plasma was stored at −20° C., followed by analysis using API 4000 MS in conjunction with a HPLC unit. The pharmacokinetic parameters Cmax and AUC were calculated according to the determined plasma concentrations and summarized in Table 22.

[7] = Solubility of crystalline forms 1 and 2 in various media; format: physicochemical
Text: as §1

[8] = Grinding stability experiment (XRD); format: physicochemical; conditions: ground and sieved, US standard 200-300 mesh
Experimental: Crystalline form 1 was ground and sieved. The US standard 200-300 mesh sieved samples were collected and XRD analyzed. Analysis conditions: Shimadzu XRD-6000, CuK source (1.54056 Å) 40 kV, 30 mA; detection angle: 5-50°, speed: 5°/min.

[9] = Dynamic vapor sorption (DVS) / moisture absorption; format: physicochemical; conditions: for weight change (DVS): range of 0% RH to 80% RH, 25° C.
Experimental: (4) Dynamic Water Adsorption (DVS), TA Instruments Q5000 TGA; controlling software: Thermal Advantage; analysis software: Universal Analysis; sample plate: platinum crucible; amount of the sample to be detected: 1-10 mg; protective gas: nitrogen; gas flow fate: 10 mL/min; detection method: equilibration at 25° C., humidity: 0%, isothermal treatment: 90 min, weight change to be detected: from 0% RH to 80% RH;
as §1

[10] = Determination of solubility in conventional solvents, visual inspection method; format: physicochemical; conditions: thermodynamic from solid, 25° C.
Text: If the sample is still not dissolved at a specific concentration, its solubility is expressed as “<specific concentration”;

SMILES: Cc1[nH]c(/C=C2\C(=O)Nc3ccc(F)cc32)c(C)c1C(=O)N[C@H]1CCN(C(=O)N(C)C)C1 [crystalline form 1, 5-[5-fluoro-2-oxo-1,2-dihydro-indole-(3Z)-ylidenemethyl]-2,4-dimethyl-1H-pyrrole-3-carboxylic acid ((S)-1-dimethylcarbamoyl-pyrrolidin-3-yl)-amide]
- concentration (solubility in water) ([1]; 0.5 hours): 1.12 µg/mL
- concentration (solubility in water) ([1]; 4 hours): 1.32 µg/mL
- stability under humidity conditions (overall) [2]: stable
- HPLC Purity % ([3]; 0 day (starting sample)): 99.67%
- HPLC Maximum single impurity % ([3]; 0 day (starting sample)): 0.22 (4.73) %
- long-term stability of the crystalline form ([3]; 12, 24, 36 and 48 months at 25° C./60% RH): substantially unchanged
- crystalline form and melting point by XRD and DSC ([3]; sealed 80° C. 24 hours, open dish 25° C./60% RH and 40° C./75% RH for 7 days): substantially unchanged
- HPLC Purity % ([3]; sealed, 80° C./24 h): 98.87%
- HPLC Maximum single impurity % ([3]; sealed, 80° C./24 h): 1.03 (4.73) %
- XRPD detection ([4]; 2.0 g in 50 mL methanol, moisture (KF) 0.1%, 20-30° C., 2 hrs): form 1
- XRPD detection ([4]; 2.0 g in 50 mL methanol, moisture (KF) 0.1%, 20-30° C., 4 hrs): form 1
- XRPD detection ([4]; 2.0 g in 50 mL methanol, moisture (KF) 0.1%, 20-30° C., 8 hrs): form 1
- XRPD detection ([4]; 2.0 g in 50 mL methanol, moisture (KF) 0.1%, 20-30° C., 21 hrs): form 1
- XRPD detection ([4]; 2.0 g in 50 mL methanol, moisture (KF) 5.2%, 20-30° C., 2 hrs): form 1
- XRPD detection ([4]; 2.0 g in 50 mL methanol, moisture (KF) 5.2%, 20-30° C., 4 hrs): form 1
- XRPD detection ([4]; 2.0 g in 50 mL methanol, moisture (KF) 5.2%, 20-30° C., 8 hrs): form 1
- XRPD detection ([4]; 2.0 g in 50 mL methanol, moisture (KF) 5.2%, 20-30° C., 21 hrs): form 1
- XRPD detection ([4]; 2.0 g in 50 mL methanol, moisture (KF) 10%, 20-30° C., 2 hrs): form 1
- XRPD detection ([4]; 2.0 g in 50 mL methanol, moisture (KF) 10%, 20-30° C., 4 hrs): form 1
- XRPD detection ([4]; 2.0 g in 50 mL methanol, moisture (KF) 10%, 20-30° C., 8 hrs): form 1
- XRPD detection ([4]; 2.0 g in 50 mL methanol, moisture (KF) 10%, 20-30° C., 21 hrs): form 1
- XRPD detection ([4]; 5.0 g in 50 mL methanol, moisture (KF) 0.1%, reflux, 2 hrs): form 1
- XRPD detection ([4]; 5.0 g in 50 mL methanol, moisture (KF) 0.1%, reflux, 4 hrs): form 1
- XRPD detection ([4]; 5.0 g in 50 mL methanol, moisture (KF) 0.1%, reflux, 8 hrs): form 2
- XRPD detection ([4]; 5.0 g in 50 mL methanol, moisture (KF) 0.1%, reflux, 21 hrs): form 2
- XRPD detection ([4]; 5.0 g in 50 mL methanol, moisture (KF) 5.2%, reflux, 2 hrs): form 1
- XRPD detection ([4]; 5.0 g in 50 mL methanol, moisture (KF) 5.2%, reflux, 4 hrs): form 1 + form 2
- XRPD detection ([4]; 5.0 g in 50 mL methanol, moisture (KF) 5.2%, reflux, 8 hrs): form 2
- XRPD detection ([4]; 5.0 g in 50 mL methanol, moisture (KF) 5.2%, reflux, 21 hrs): form 2
- XRPD detection ([4]; 5.0 g in 50 mL methanol, moisture (KF) 10%, reflux, 2 hrs): form 1
- XRPD detection ([4]; 5.0 g in 50 mL methanol, moisture (KF) 10%, reflux, 4 hrs): form 2
- XRPD detection ([4]; 5.0 g in 50 mL methanol, moisture (KF) 10%, reflux, 8 hrs): form 2
- XRPD detection ([4]; 5.0 g in 50 mL methanol, moisture (KF) 10%, reflux, 21 hrs): form 2
- Internal dissolution rate [5]: 0.022 mg/(min · cm^2)
- Cmax relative to crystalline form 2 [6]: about 4 times
- exposure (AUC) relative to crystalline form 2 [6]: about 3 times
- AUC(0-t) ([6]; average value): 10488.3 ng·h/mL
- Cmax ([6]; average value): 1340.3 ng/mL
- AUC(0-t) ([6]; female 1): 3536.6 ng·h/mL
- Cmax ([6]; female 1): 593.9 ng/mL
- AUC(0-t) ([6]; female 2): 28571.4 ng·h/mL
- Cmax ([6]; female 2): 2649.0 ng/mL
- AUC(0-t) ([6]; female 3): 16634.2 ng·h/mL
- Cmax ([6]; female 3): 2033.3 ng/mL
- AUC(0-t) ([6]; male 1): 3180.0 ng·h/mL
- Cmax ([6]; male 1): 716.6 ng/mL
- AUC(0-t) ([6]; male 2): 6766.0 ng·h/mL
- Cmax ([6]; male 2): 1071.3 ng/mL
- AUC(0-t) ([6]; male 3): 4241.5 ng·h/mL
- Cmax ([6]; male 3): 977.7 ng/mL
- Solubility ([7]; 1% Tween 80): 60 µg/mL (≈ 137 µM)
- Solubility ([7]; 1% sodium lauryl sulfate): 3480 µg/mL (≈ 7920 µM)
- Solubility ([7]; 2% sodium lauryl sulfate): 3790 µg/mL (≈ 8620 µM)
- Solubility ([7]; PEG 400): 3660 µg/mL (≈ 8330 µM)
- Solubility ([7]; acetonitrile): 680 µg/mL (≈ 1550 µM)
- Solubility ([7]; aqueous solution with pH of 1.0-7.5): 0.12 to 0.53 µg/mL
- solubility at 4 h ([7]; artificial gastric juice, simulated gastric fluid, thermodynamic from solid, second line of this heading (Table 21 r21)): 0.43 µg/mL (≈ 0.978 µM)
- Solubility ([7]; ethanol): 2460 µg/mL (≈ 5600 µM)
- Solubility ([7]; glycerin): 570 µg/mL (≈ 1300 µM)
- Solubility ([7]; methanol): 8170 µg/mL (≈ 18600 µM)
- stability during grinding (XRD pattern before and after) [8]: remained stable
- Moisture absorption ([9]; RH 50%): 2.015%
- Moisture absorption ([9]; RH 80%): 2.578%
- weight change (DVS) [9]: about 2.8%
- weight change (DVS) ([9]; listed as Crystalline form 1): 2.8%
- Solubility ([10]; acetone, organic solvent or mixture, read-out: solubility in acetone): 1000 to 2500 µg/mL (≈ 2280 to 5690 µM)
- Solubility ([10]; acetonitrile, organic solvent or mixture, read-out: solubility in acetonitrile): < 1000 µg/mL
- Solubility ([10]; ethanol, organic solvent or mixture, read-out: solubility in ethanol): 1000 to 2500 µg/mL (≈ 2280 to 5690 µM)
- Solubility ([10]; ethyl acetate, organic solvent or mixture, read-out: solubility in ethyl acetate): < 1000 µg/mL
- Solubility ([10]; methanol, organic solvent or mixture, read-out: solubility in methanol): 5000 to 12500 µg/mL (≈ 11400 to 28400 µM)
- Solubility ([10]; methyl tert-butyl ether, organic solvent or mixture, read-out: solubility in methyl tert-butyl ether): < 1000 µg/mL
- Solubility ([10]; n-heptane, organic solvent or mixture, read-out: solubility in n-heptane): < 1000 µg/mL
- Solubility ([10]; tetrahydrofuran, organic solvent or mixture, read-out: solubility in tetrahydrofuran): 1000 to 2500 µg/mL (≈ 2280 to 5690 µM)
- Solubility ([10]; toluene, organic solvent or mixture, read-out: solubility in toluene): < 1000 µg/mL
- Solubility ([10]; water, read-out: solubility in water): < 1000 µg/mL
